# What was measured:
# [1] = molecular target: human serum albumin (Homo sapiens, UniProt P02768); assay: Fraction of free peptide calculated from variation in cAMP generation with HSA concentration; conditions: human
# Description: Data was transformed to % Delta F as described in manufacturer's guidelines and analysed by 4-parameter logistic fit to determine EC50 values. […] To compare the balance of activities at the GLP1R and GlucR between different peptides and across different conditions, these can be correlated using the calculation below, where the EC50's are related to those of the natural ligands.
# [2] = format: in vitro ADME, human; conditions: human, 24 h, 2 μmol/L
# Description: Stability testing of peptides in plasma.
# Stock solutions of the peptides of about 200 μmol/L was prepared by weighing solid peptide into a Eppendorf Low Bind Tube and dissolved in DMSO. 10 μL of stock solutions were added to 990 μL of plasma in an Eppendorf Low Bind Tube, resulting in initial concentrations of the peptides in plasma of about 2 μmol/L. The frozen blank plasma from human, rat and mouse had been thawed and heated to a temperature of 37° C. before addition of the stock solution. The spiked plasma samples were gently mixed and allowed to equilibrate for about 5 minutes before start of experiment. The plasma samples were incubated for 48 hours in a GalaxyR CO2 incubator at 37° C. Sampling (30 μL) was performed at 0, 1, 2, 6.5, 17, 24 and 48 hours. The samples were stored at −70° C. until analysis.
# Plasma samples were assayed as follows. The 30 μL plasma samples were protein precipitated with […] of cold ethanol in a 96-well low bind plate (Eppendorf Protein LoBind). After mixing and centrifugation, 100 μl the supernatant was transferred to a new plate and 1 μl was injected onto an analytical column.
# The analysis was performed using a μLC-system (LC Exigent μLC) coupled to a medium high resolution mass spectrometer (Perkin Elmer PenTOF) with positive electrospray ionisation. The analytical column was a 5 cm, 1 mm Agilent Poroshell (custom made) C18-column with a particle size of 2.7 μm. Flow: 0.1 ml/min using a slow reversed phase gradient. Mobile phases used were acetonitrile and water containing 0.1% formic acid.
# The resulting data were manually evaluated for the following degradation products: +1 product (acid) and the DPP IV-cleavage product. Products with +1 mass may arise from deamidation at amide groups of glutamine or at the C-terminus. Cleavage products arise from the action of the protease DPP IV in plasma. Both the degradation of the peptides and formation of peptide products were reported in percentage of the initial peptide concentration. Peaks were integrated and % remaining peptide was calculated: (peak area/peak area 0H)*100. Levels of deamidation and DPP IV cleavage were low for G797 and G933.
# [3] = system: diet induced obesity (DIO) mouse model; assay: Diet induced obesity (DIO) mouse model, study B; format: in vivo; conditions: for FGF 21 / HOMA / Hepatic TG / Plasma Cholesterol / Plasma NEFA / Plasma TG: day 14; for Glucose / Insulin: day 14, 4-hour fasting
# Description: The body weight of the animals was monitored daily throughout the dosing period. At day 14, blood samples for the measurement of plasma glucose and insulin from conscious mice were obtained after a 4-hour fasting period. Mice were then anaesthetized using isoflourane and terminal blood was collected from the capillary bed behind the eye. The following parameters were measured: blood chemistry measurements of triglycerides, total cholesterol, non-esterified fatty acids (NEFA), beta-hydroxybutyrate and fibroblast growth factor 21 (FGF21) (Table 16 and Table 17 below).
# [4] = system: overweight or obese subjects with type 2 diabetes mellitus (T2DM); assay: Multiple-ascending dose study Part II (Cohorts 5 and 6); format: in vivo, human; conditions: for Fasting Glucose (change) / Glucose AUG (change) / Weight (change): n = 12 active
# Description: A randomized, double-blind, multiple-ascending dose study is performed. This study consists of 2 cohorts: cohort 5 and cohort 6.
# The study consists of an inpatient up-titration evaluation period beginning on Day 3 for both Cohorts 5 and 6 and an outpatient follow-up period. The first 4 days and the final day of dosing at 300 μg are inpatient.
# Subjects have a second inpatient period for the initiation of the 300 μg dose ending on the fourth day at that dose followed by at-home self administration.
# Additional time points include before commencing the 300 μg dose (Day 16 for Cohort 5 and Day 11 for Cohort 6), and at the end of dosing (Day 22 for Cohort 5 and Day 17 for Cohort 6).
# [5] = system: overweight or obese subjects with type 2 diabetes mellitus (T2DM); assay: Phase 1/2 multiple-ascending dose study Part I (Cohorts 1-4)
# Description: A Phase 1/2, randomized, double-blind, multiple-ascending dose study is performed in two parts (A and B).
# Part A consists of 3 cohorts.
# Part B consists of 1 cohort.
# The initial dose is 100 μg. […] The study duration for each subject varies by cohort and consists of an inpatient multiple-ascending dose (MAD) or up-titration evaluation period (beginning on Day −2 and ending after Day 8 for Cohort 1, Day 12 for Cohort 2, Day 16 for Cohort 3, and Day 13 for Cohort 4) and an outpatient follow-up period.
# The subject remains in the facility for observation and safety tests including ECGs, telemetry, monitoring of vital signs, and assessments of the injection site for potential reactions throughout the day and during the treatment period.
# Mixed-meal test (MMT) procedures are performed on Day −1 and on the last day of the highest dose level achieved for all cohorts. […] For the MMT, the subject consumes a standardized meal (Ensure Plus %) within 5 minutes, and timed serial blood samples are obtained for measurement of glucose and parameters related to glucose metabolism just before and through 240 minutes after consumption of the standandized meal. During the inpatient period, finger prick glucose samples are collected 15 minutes prior to and 2 hours after breakfast, mid-day, and evening meals, and prior to going to bed.
# Cohort 4 subjects are re-admitted for an overnight inpatient stay at the end of the at-home self-administration period to collect the final endpoints.
# Subjects are discharged from the unit the day after the final dose is administered in the study.
# Missing measurements at the end of treatment are replaced with the last available measurement. The comparison is conducted at a two-sided significance level of 0.1.
# [6] = Cohort 4, 200 ug, n = 25 active
# Chain of human serum albumin (P02768 25-609): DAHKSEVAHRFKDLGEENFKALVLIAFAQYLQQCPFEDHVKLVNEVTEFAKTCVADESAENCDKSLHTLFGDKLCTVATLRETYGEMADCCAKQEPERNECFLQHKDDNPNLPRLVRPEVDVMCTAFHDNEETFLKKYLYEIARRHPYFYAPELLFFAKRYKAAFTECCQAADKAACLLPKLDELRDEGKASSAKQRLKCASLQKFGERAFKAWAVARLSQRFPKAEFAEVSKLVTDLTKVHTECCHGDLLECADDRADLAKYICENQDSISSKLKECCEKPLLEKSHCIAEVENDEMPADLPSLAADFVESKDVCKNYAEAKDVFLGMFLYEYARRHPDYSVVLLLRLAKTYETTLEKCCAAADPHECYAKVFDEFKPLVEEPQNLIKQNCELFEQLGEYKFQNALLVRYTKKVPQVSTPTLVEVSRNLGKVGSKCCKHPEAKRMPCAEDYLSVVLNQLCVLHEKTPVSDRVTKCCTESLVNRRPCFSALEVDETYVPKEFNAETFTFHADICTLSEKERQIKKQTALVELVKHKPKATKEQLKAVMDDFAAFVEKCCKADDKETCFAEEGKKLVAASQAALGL
structure (smiles),measurement,setting,value
CCCCCCCCCCCCCCCC(=O)N[C@@H](CCC(=O)NCCCC[C@H](NC(=O)[C@H](CC(=O)O)NC(=O)[C@H](CO)NC(=O)C(NC(=O)[C@H](Cc1ccccc1)NC(=O)C(NC(=O)CNC(=O)[C@H](CCC(N)=O)NC(=O)[C@H](CO)NC(=O)[C@@H](N)Cc1cnc[nH]1)[C@@H](C)O)[C@@H](C)O)C(=O)N[C@@H](CO)C(=O)N[C@@H](CCC(=O)O)C(=O)N[C@@H](Cc1ccc(O)cc1)C(=O)N[C@@H](CC(C)C)C(=O)N[C@@H](CC(=O)O)C(=O)N[C@@H](CO)C(=O)N[C@@H](CCC(=O)O)C(=O)N[C@@H](CCCNC(=N)N)C(=O)N[C@@H](C)C(=O)N[C@@H](CCCNC(=N)N)C(=O)N[C@@H](CC(=O)O)C(=O)N[C@@H](Cc1ccccc1)C(=O)N[C@H](C(=O)N[C@@H](C)C(=O)N[C@@H](Cc1c[nH]c2ccccc12)C(=O)N[C@@H](CC(C)C)C(=O)N[C@@H](CCC(=O)O)C(=O)N[C@@H](C)C(=O)NCC(=O)NCC(=O)O)C(C)C)C(=O)O (stereo partly shown) [Peptide G933],free peptide at 4.4% HSA,[1],0.29%
same,% DPP cleaved product/+1 DPP cleaved product,[2],<1%
same,% stable peptide,[2],86%
same,Levels of deamidation and DPP IV cleavage,"[2]; rat, mouse",low
same,BW day 14 (% change of vehicle mean),[3]; 5 nmol/kg sc twice daily for 14 days,−11%
same,FGF 21,[3]; 5 nmol/kg sc twice daily,2682 pg/mL
same,HOMA,[3]; 5 nmol/kg sc twice daily,3.31
same,Hepatic TG,[3]; 5 nmol/kg sc twice daily,19.3 g TG/100 g tissue
same,Plasma Cholesterol,[3]; 5 nmol/kg sc twice daily,2.88 mM
same,Plasma NEFA,[3]; 5 nmol/kg sc twice daily,0.28 mM
same,Plasma TG,[3]; 5 nmol/kg sc twice daily,0.89 mM
same,Glucose,[3]; 5 nmol/kg sc twice daily,6.2 mM
same,Insulin,[3]; 5 nmol/kg sc twice daily,0.53 nM
same,BW day 14 (% change of vehicle mean),[3]; 10 nmol/kg sc twice daily for 14 days,−19%
same,FGF 21,[3]; 10 nmol/kg sc twice daily,4459 pg/mL
same,HOMA,[3]; 10 nmol/kg sc twice daily,1.98
same,Hepatic TG,[3]; 10 nmol/kg sc twice daily,14.7 g TG/100 g tissue
same,Plasma Cholesterol,[3]; 10 nmol/kg sc twice daily,2.32 mM
same,Plasma NEFA,[3]; 10 nmol/kg sc twice daily,0.27 mM
same,Plasma TG,[3]; 10 nmol/kg sc twice daily,0.16 mM
same,Glucose,[3]; 10 nmol/kg sc twice daily,7.2 mM
same,Insulin,[3]; 10 nmol/kg sc twice daily,0.27 nM
same,body weight over the 14 day dosing period,"[3]; study B, in words",dose dependent and continuous weight loss
same,glucose AUC reduction,"[4]; Cohort 5 (100/150/200/300 μg, 22 days)",41.7%
same,Fasting Glucose (change),"[4]; Cohort 5, 300 ug",-24.40 mg/dL
same,Glucose AUG (change),"[4]; Cohort 5, 300 ug",−33.7
same,Weight (change),"[4]; Cohort 5, 300 ug, difference to placebo after 22 days",-2.11 kg
same,weight loss difference vs placebo,"[4]; Cohort 5, 22 days",2.11 kg
same,heart rate increase from baseline,"[4]; Cohort 5, 22 days administration",approximately 7.6 BPM
same,weight lost,"[4]; Cohort 5, after 22 days",about 3.09 kg
same,glucose AUC reduction,"[4]; Cohort 6 (100/200/300 μg, 17 days)",35.8%
same,Fasting Glucose (change),"[4]; Cohort 6, 300 ug",-36.94 mg/dL
same,Glucose AUG (change),"[4]; Cohort 6, 300 ug",−28.9
same,Weight (change),"[4]; Cohort 6, 300 ug, difference to placebo after 17 days",-1.88 kg
same,patients who vomited,"[4]; Cohort 6, 1 patient",8.3%
same,weight loss difference vs placebo,"[4]; Cohort 6, 17 days",1.88 kg
same,heart rate increase from baseline,"[4]; Cohort 6, 17 days administration",approximately 5.9 BPM
same,weight lost,"[4]; Cohort 6, after 17 days",about 2.23 kg
same,deaths or serious adverse events,[4]; Cohorts 5 and 6,No deaths or serious adverse events were observed
same,rate of vomiting,"[4]; Cohorts 5 and 6 together, 4/24",16%
same,rate of nausea,"[4]; Cohorts 5 and 6 together, 8/24",33%
same,Fasting Glucose (change),"[5]; Cohort 1, 100 ug, n = 6 active",-28.00 mg/dL
same,Glucose AUG (change),"[5]; Cohort 1, 100 ug, n = 6 active",−27.3
same,Weight (change),"[5]; Cohort 1, 100 ug, n = 6 active",-1.1 kg
same,Fasting Glucose (change),"[5]; Cohort 2, 150 ug, n = 6 active",-17.90 mg/dL
same,Glucose AUG (change),"[5]; Cohort 2, 150 ug, n = 6 active",−8.9
same,Weight (change),"[5]; Cohort 2, 150 ug, n = 6 active",-0.5 kg
same,weight differential,[5]; Cohort 3,more than 2 kg
same,Fasting Glucose (change),"[5]; Cohort 3, 200 ug, n = 6 active",-43.20 mg/dL
same,Glucose AUG (change),"[5]; Cohort 3, 200 ug, n = 6 active",−31.6
same,Weight (change),"[5]; Cohort 3, 200 ug, n = 6 active",-2.4 kg
same,reduction in liver volume compared to placebo,[5]; Cohort 4,0.14 L
same,Death (grade 5 severity),"[5]; Cohort 4, 200 μg, N = 25",0
same,Subject with at least one G933-related serious event,"[5]; Cohort 4, 200 μg, N = 25",0
same,Subject with at least one event,"[5]; Cohort 4, 200 μg, N = 25",22 (88.8%)
same,Subject with at least one event leading to discontinuation of G933,"[5]; Cohort 4, 200 μg, N = 25",3 (12.0%)
same,Subject with at least one event of ≥ grade 3 severity,"[5]; Cohort 4, 200 μg, N = 25",0
same,Subject with at least one serious event,"[5]; Cohort 4, 200 μg, N = 25",0
same,Fasting Glucose (change),[5]; [6],-31.62 mg/dL
same,Glucose AUG (change),[5]; [6],−22.5
same,patients who vomited,"[5]; Cohort 4, 8 patients",32.0%
same,patients reporting nausea,"[5]; Cohort 4, 13 patients",52.0%
same,patients who lost at least 2% of their weight,"[5]; Cohort 4, 41 days",84%
same,patients who lost at least 5 kg,"[5]; Cohort 4, 41 days",44%
same,percent weight loss difference between G933 and placebo,"[5]; Cohort 4, 41 days",2.47%
same,weight loss difference between G933 and placebo,"[5]; Cohort 4, 41 days",2.12 kg
same,increase in heart rate,"[5]; Cohort 4, Day 41",6.9 bpm
same,percent of weight lost,"[5]; Cohort 4, after 41 days",about 4.18%
same,weight lost,"[5]; Cohort 4, after 41 days",about 3.83 kg
same,HbA1c reduction,"[5]; Cohort 4, after 41 days of treatment",0.92%
same,mean HbA1c on day 42,"[5]; Cohort 4, baseline mean […]",6.3%
same,mean reduction in glucose AUC from baseline (day 1) to day 41,"[5]; Cohort 4, up to 200 μg",38.5%
same,patients with vomiting,[5]; Cohorts 1-3 (n=5),26%
same,weight loss,"[5]; Cohorts 1-3, dose dependent trend",up to 2 kg
same,mixed-meal test glucose AUC reduction,[5]; across Cohorts 1-3 (100-200 μg QD),> 40%
same,increase in pulse rate,[5]; each of Cohorts 1-3,about 10 bpm
same,Between-subject variability in Cmax,[5]; larger Cohort 4,40-50%
same,anti-G933 antibody,"[5]; post baseline, Cohorts 1-3",Only one sample was confirmed positive
same,Between-subject variability in Cmax,"[5]; smaller cohorts, Parts I and II",20-30%

# Reference: patent US20220041681A1 (MEDIMMUNE LIMITED, priority 2016, published 2022)
